One data set has as its target T1, FPR2 (Homo sapiens, UniProt P25090).
T1 construct: expressed in transfected cells; host or cells: HL60 (human promyelocytic leukemia), stably transfected; gift from Dr. Marie-Josephe Rabiet
T1 sequence (P25090 1-351): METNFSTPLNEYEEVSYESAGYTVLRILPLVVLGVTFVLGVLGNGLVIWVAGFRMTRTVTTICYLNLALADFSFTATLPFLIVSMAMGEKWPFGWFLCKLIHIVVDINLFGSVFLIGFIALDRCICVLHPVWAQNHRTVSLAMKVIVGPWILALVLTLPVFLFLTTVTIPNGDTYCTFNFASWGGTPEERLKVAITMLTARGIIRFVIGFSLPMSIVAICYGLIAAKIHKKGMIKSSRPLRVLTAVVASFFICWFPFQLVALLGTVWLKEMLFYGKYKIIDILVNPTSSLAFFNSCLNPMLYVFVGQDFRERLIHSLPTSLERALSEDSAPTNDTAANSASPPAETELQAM
In words: Ca2+ mobilization in FPR2-transfected HL60 cells. It counts as cell-based. The note with it: for Emax: HL-60, read-out: FPR2-HL60 Efficacy (converted); for selectivity index (SI) FPR1/FPR2: ratio of EC50 FPR1-HL60 / FPR2-HL60.

For another data set, the target named is T2, FPR1 (Homo sapiens, UniProt P21462).
T2 construct: expressed in transfected cells; host or cells: HL60 (human promyelocytic leukemia), stably transfected; gift from Dr. Marie-Josephe Rabiet
T2 sequence (P21462 1-350): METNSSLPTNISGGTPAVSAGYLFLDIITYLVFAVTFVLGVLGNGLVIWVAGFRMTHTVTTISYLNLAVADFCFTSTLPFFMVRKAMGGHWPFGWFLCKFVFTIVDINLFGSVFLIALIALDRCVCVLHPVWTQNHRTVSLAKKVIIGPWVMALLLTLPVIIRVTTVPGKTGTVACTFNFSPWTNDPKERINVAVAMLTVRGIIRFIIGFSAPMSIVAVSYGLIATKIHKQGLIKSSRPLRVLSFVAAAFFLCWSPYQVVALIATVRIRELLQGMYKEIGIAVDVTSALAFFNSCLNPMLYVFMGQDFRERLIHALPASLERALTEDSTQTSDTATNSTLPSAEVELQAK
In words: Ca2+ mobilization in FPR1-transfected HL60 cells. The note with it: for Emax: HL-60, read-out: FPR1-HL60 Efficacy (converted). It counts as cell-based. In general terms: A change in cytosolic calcium serves as a functional read-out for many receptors and channels.

The next data set concerns human neutrophils (hPMN). In words: Ca2+ mobilization in human neutrophils (hPMN). It counts as cell-based. The settings on record: Neutrophil; for Emax: read-out: hPMN Efficacy (converted). An excerpt:
Blood was collected from healthy donors in accordance with a protocol approved by the Institutional Review Board at Montana State University. Neutrophils were purified from the blood using dextran sedimentation, followed by Histopaque 1077 gradient separation and hypotonic lysis of red blood cells. Isolated neutrophils were washed twice and resuspended in HBSS^-. Neutrophil preparations were routinely >95% pure, as determined by light microscopy, and >98% viable, as determined by trypan blue exclusion.
Changes in intracellular Ca^2+ were measured with a FlexStation II scanning fluorometer (Molecular Devices, Sunnyvale, CA, USA). The cells, suspended in Hank’s balanced salt solution without Ca^2+ and Mg^2+ but with 10 mM HEPES (HBSS^−), were loaded with 1.25 μg/mL Fluo-4 AM dye and incubated for 30 min in the dark at 37 °C. After dye loading, the cells were washed with HBSS^- containing 10 mM HEPES, resuspended in HBSS^+ containing Ca^2+, Mg^2+, and 10 mM HEPES (HBSS^+), and aliquoted into the wells of flat-bottom, half-area-well black microtiter plates (2 × 10^5 cells/well). For the evaluation of direct agonist activity, compounds of interest were added from a source plate containing dilutions of test compounds in HBSS^+, and changes in fluorescence were monitored (λex = 485 nm, λem = 538 nm) every 5 s for 240 s at room temperature after the automated addition of compounds. Maximum change in fluorescence during the first 3 min, expressed in arbitrary units over baseline, was used to determine a response. […] Curve fitting (5–6 points) and calculation of median effective inhibitory concentrations (IC50) were performed by nonlinear regression analysis of the dose–response curves generated using Prism 9 (GraphPad Software, Inc., San Diego, CA, USA).

Description for FPR1: (§1) Human promyelocytic leukemia HL60 cells stably transfected with FPR1 (FPR1-HL60 cells) or FPR2 (FPR2-HL60 cells) (kind gift from Dr. Marie-Josephe Rabiet, Université Joseph Fourier, Grenoble, France) were cultured in RPMI 1640 medium supplemented with 10% heat-inactivated fetal calf serum, 10 mM HEPES, 100 μg/mL streptomycin, 100 U/mL penicillin, and G418 (1 mg/mL). G418 was removed in the last round of culture before assays were performed.
Description for FPR2: as §1

By melting point is commonly meant the temperature of the solid-liquid transition. As a reminder, the EC50 is the concentration giving half of the maximal effect. For the molecule `Cc1c(-c2cccc(O)c2)cc(C#N)c(=O)n1CC(=O)Nc1cccc(O)c1` [Compound 14b, 2-[3-Cyano-5-(3-hydroxyphenyl)-6-methyl-2-oxopyridin-1(2H)-yl]-N-(3-hydroxyphenyl) acetamide], the melting point was 187 to 189 °C (dec.). Besides, at FPR2, the EC50 came out at 37.6 ± 5.6 µM and the Emax was 150%. On FPR1, the 50% effective concentration (EC50) was determined as 40.1 ± 7.2 µM and the Emax was 50%.

With `CCCCOC(=O)c1cc(C#N)c(=O)n(CC(=O)Nc2ccc(Br)cc2)c1C` [Compound 4b, Butyl 1-{2-[(4-bromophenyl)amino]-2-oxoethyl}-5-cyano-2-methyl-6-oxo-1,6-dihydropyridine-3-carboxylate], the melting point is 109 to 111 °C (dec.). Moreover, on FPR2, the EC50 was found to be 18.3 ± 4.2 µM and the Emax was 75%. Also, at FPR1, the EC50 was 29.7 ± 4.6 µM and the Emax was 70%. For the same molecule, in the data set on human neutrophils (hPMN), the EC50 was 27.9 ± 3.2 µM and the Emax is 110%.

`Cc1c(C(N)=O)cc(C#N)c(=O)n1CC(=O)Nc1ccc(Br)cc1` [Compound 6, 1-{2-[(4-Bromophenyl)amino]-2-oxoethyl}-5-cyano-2-methyl-6-oxo-1,6-dihydropyridine-3-carboxamide]: the EC50 was found to be 8.4 ± 0.6 µM on FPR2, 27.1 ± 4.2 µM at FPR1 and 29.1 ± 3.6 µM with human neutrophils (hPMN). For the same molecule, the Emax at FPR2 was 125%; on FPR1, 60%; in the data set on human neutrophils (hPMN), 90%.

As to `CCNC(=O)c1cc(C#N)c(=O)n(CC(=O)Nc2ccc(Br)cc2)c1C` [Compound 8b, 1-{2-[(4-Bromophenyl)amino]-2-oxoethyl}-5-cyano-N-ethyl-2-methyl-6-oxo-1,6-dihydropyridine-3-carboxamide], the melting point is 290 °C (dec.). For the same molecule, at FPR2, the midpoint of the response, the EC50, lay at 3.3 ± 0.2 µM; the Emax was 120%; the “selectivity index (SI) FPR1/FPR2” value was found to be 6. In addition, at FPR1, the EC50 worked out at 21.2 ± 1.2 µM and the Emax was 145%. Besides, in the data set with human neutrophils (hPMN), the half-maximal effective concentration (EC50) was 11.4 ± 3.1 µM and the Emax was 80%.

On to `CCCNC(=O)c1cc(C#N)c(=O)n(CC(=O)Nc2ccc(Br)cc2)c1C` [Compound 8c, 1-{2-[(4-bromophenyl)amino]-2-oxoethyl}-5-cyano-2-methyl-6-oxo-N-propyl-1,6-dihydropyridine-3-carboxamide], for which the melting point is 274 to 276 °C (dec.). For the same molecule, on FPR2, the response was half-maximal at 1.3 ± 0.1 µM (EC50) and the Emax is 135%. In addition, on FPR1, the EC50 is 7 ± 0.7 µM and the Emax is 120%. Also, in the data set with human neutrophils (hPMN), the midpoint of the response, the EC50, lay at 7.2 ± 1.6 µM and the Emax is 70%.

On to `Cc1c(-c2cccc(O)c2)cc(C#N)c(=O)n1CC(=O)Nc1ccc(O)cc1` [Compound 14c, 2-[3-Cyano-5-(3-hydroxyphenyl)-6-methyl-2-oxopyridin-1(2H)-yl]-N-(4-hydroxyphenyl) acetamide], for which the melting point was 232 to 234 °C (dec.).

With `Cc1c(C(=O)OC(C)C)cc(C#N)c(=O)n1CC(=O)Nc1ccc(Br)cc1` [Compound 4c, Isopropyl 1-{2-[(4-bromophenyl)amino]-2-oxoethyl}-5-cyano-2-methyl-6-oxo-1,6-dihydropyridine-3-carboxylate], the melting point was 223 to 224 °C. Besides, on FPR2, a half-maximal response (EC50) required 8.4 ± 1.7 µM and the Emax is 85%. Further, at FPR1, the concentration for a half-maximal effect (EC50) worked out at 7.7 ± 1.7 µM and the Emax was 180%. Further, in the data set with human neutrophils (hPMN), the EC50 worked out at 10.2 ± 1.9 µM and the Emax is 120%.

Take `COc1cccc(CCOC(=O)c2cc(C#N)c(=O)n(CC(=O)Nc3ccc(Br)cc3)c2C)c1` [Compound 4e, 3-Methoxyphenethyl 1-{2-[(4-bromophenyl)amino]-2-oxoethyl}-5-cyano-2-methyl-6-oxo-1,6-dihydropyridine-3-carboxylate]: the values for the 50% effective concentration (EC50) at FPR2, on FPR1 and in the data set on human neutrophils (hPMN) were 17.3 ± 4.1 µM, 24.1 ± 5.2 µM and 17.9 ± 4.2 µM, respectively. In addition, the Emax on FPR2 is 75%; on FPR1, 70%; in the data set with human neutrophils (hPMN), 65%.

`Cc1c(C(=O)N(C)C)cc(C#N)c(=O)n1CC(=O)Nc1ccc(Br)cc1` [Compound 8e, 1-{2-[(4-Bromophenyl)amino]-2-oxoethyl}-5-cyano-N,N,2-trimethyl-6-oxo-1,6-dihydropyridine-3-carboxamide]: the melting point was 122 to 124 °C. Moreover, at FPR2, the EC50 was found to be 2.4 ± 1.2 µM, the Emax was 150% and the “selectivity index (SI) FPR1/FPR2” value was 7.5. For the same molecule, on FPR1, the EC50 was found to be 18 ± 3.5 µM and the Emax is 110%. In addition, in the data set with human neutrophils (hPMN), the response was half-maximal at 20.8 ± 4.8 µM (EC50) and the Emax is 110%.

As to `Cc1c(C(=O)O)cc(C#N)c(=O)n1CC(=O)Nc1ccc(Br)cc1` [Compound 2, 1-{2-[(4-Bromophenyl)amino]-2-oxoethyl}-5-cyano-2-methyl-6-oxo-1,6-dihydropyridine-3-carboxylic acid], the melting point was 180 to 182 °C (dec.). At FPR2, the 50% effective concentration (EC50) turned out to be 9.2 ± 1.9 µM and the Emax was 100%. In addition, on FPR1, a half-maximal effect (EC50) was put at 3.5 ± 0.9 µM and the Emax is 100%. Moreover, in the data set on human neutrophils (hPMN), the 50% effective concentration (EC50) is 4.3 ± 1.5 µM and the Emax was 120%.

Regarding `Cc1c(-c2cccc(O)c2)cc(C#N)c(=O)n1CC(=O)Nc1ccc(Br)cc1` [Compound 14a, N-(4-Bromophenyl)-2-[3-cyano-5-(3-hydroxyphenyl)-6-methyl-2-oxopyridin-1(2H)-yl] acetamide], the melting point was 282 to 284 °C (dec.). Moreover, at FPR2, it took 0.23 ± 0.02 µM to reach a half-maximal effect (EC50) and the Emax is 150%. Further, at FPR1, the EC50 is 0.23 ± 0.06 µM and the Emax was 115%. In the data set on human neutrophils (hPMN), the EC50 is 3.7 ± 0.7 µM and the Emax is 130%.

Consider `COc1cccc(-c2cc(C#N)c(=O)n(CC(=O)Nc3ccc(O)cc3)c2C)c1` [Compound 13c, 2-[3-Cyano-5-(3-methoxyphenyl)-6-methyl-2-oxopyridin-1(2H)-yl]-N-(4-hydroxyphenyl) acetamide], for which the melting point was 127 to 129 °C.

With `COc1cccc(COC(=O)c2cc(C#N)c(=O)n(CC(=O)Nc3ccc(Br)cc3)c2C)c1` [Compound 4d, 3-Methoxybenzyl 1-{2-[(4-bromophenyl)amino]-2-oxoethyl}-5-cyano-2-methyl-6-oxo-1,6-dihydropyridine-3-carboxylate], the EC50 on FPR2 came out at 14.1 ± 3.8 µM; on FPR1, 20.8 ± 3.7 µM; in the data set with human neutrophils (hPMN), 12.7 ± 3.9 µM. For the same molecule, the Emax was 100% at FPR2, 85% at FPR1 and 65% in the data set on human neutrophils (hPMN).

Take `COc1ccc(C(=O)c2cc(C(N)=O)c(=O)n(CC(=O)Nc3ccc(Br)cc3)c2C)cc1` [Compound 10, 1-{2-[(4-bromophenyl)amino]-2-oxoethyl}-5-(4-methoxybenzoyl)-6-methyl-2-oxo-1,2-dihydropyridine-3-carboxamide]: the EC50 was 3.4 ± 0.7 µM on FPR2, 4.4 ± 0.5 µM on FPR1 and 7.5 ± 2.1 µM in the data set with human neutrophils (hPMN). Moreover, the figures for the Emax at FPR2, at FPR1 and with human neutrophils (hPMN) were 130%, 105% and 120%, respectively.

With `COc1cccc(-c2cc(C#N)c(=O)n(CC(=O)Nc3cccc(O)c3)c2C)c1` [Compound 13b, 2-[3-Cyano-5-(3-methoxyphenyl)-6-methyl-2-oxopyridin-1(2H)-yl]-N-(3-hydroxyphenyl) acetamide], the melting point fell in the range of 128 to 130 °C.

Turning to `COc1ccc(C(=O)c2cc(C#N)c(=O)n(CC(=O)Nc3ccc(Br)cc3)c2C)cc1` [Compound 11, N-(4-bromophenyl)-2-[3-cyano-5-(4-methoxybenzoyl)-6-methyl-2-oxopyridin-1(2H)-yl]acetamide], the EC50 at FPR2 is 1.9 ± 0.2 µM; at FPR1, 5.2 ± 0.4 µM; in the data set on human neutrophils (hPMN) it was 7.8 ± 2.2 µM. Also, the Emax at FPR2 was 110%; on FPR1, 105%; in the data set on human neutrophils (hPMN) it was 120%.

These data come from article PMC8587000, “Pyridinone Derivatives as Interesting Formyl Peptide Receptor (FPR) Agonists for the Treatment of Rheumatoid Arthritis” (Molecules, 2021).
